US20250248973A1, “CANNABINOID RECEPTOR 1 ANTAGONISTS/INVERSE AGONISTS AND USES THEREOF” (Corbus Pharmaceuticals, Inc., priority 2022, published 2025)

Columns and labels:
[1] = target: Human CB1 Receptor-1b (hCB1b) (Homo sapiens (Human), UniProt P21554); experiment: hCB1b Gai cyclic AMP (cAMP) TR-FRET assay, antagonism of EC80 CP55940 with forskolin; format: cell-based; details: hCB1b cells, 30 min pre-incubation, read-out: CB1b IC50
How it was run: (§1)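 Cells expressing hCB1 or hCB1b were preincubated with compound for 30 min at rt, then stimulated with an EC80 concentration of CP55940 plus forskolin for 20 min at 37C. cAMP was measured by TR-FRET using Eu-cAMP and 650-labeled anti-cAMP in lysis buffer, with emission at 620/665 nm. IC50 values are binned by category.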

[2] = target: Human CB1 Receptor-1 (hCB1) (Homo sapiens (Human), UniProt P21554); experiment: hCB1 Gai cyclic AMP (cAMP) TR-FRET assay, antagonism of EC80 CP55940 with forskolin; format: cell-based; details: hCB1 cells, 30 min pre-incubation
How it was run: as §1

[3] = Pharmacokinetics following oral administration in male C57BL/6 mice: brain/plasma ratio; format: in vivo; details: single PO 10 mg/kg, compared to rimonabant 10 mg/kg PO
Method: FIG. 2 provides graphs showing the brain/plasma ratio of orally administered Compound 9 (10 mg/kg) in comparison to orally administered rimonabant (10 mg/kg) C57BL/6J in mice, as measured by area under the curve from 0 to 24 hours (AUC0-24) and maximum concentration (Cmax) post administration.
Example 5. Pharmacokinetics of Following Oral Administration in Male C57BL/6 Mice
A study was conducted to compare the brain/plasma ratios of Compound 9 and rimonabant following oral administration in mice.
Fasted overnight with free access to water and fed 4 hr post dosing
PO administration via oral gavage
Group 2: PO, 10 mg/kg, 10 mL/kg
0.5% MC (400 cp) in purified water (1 mg/mL)
Terminal sampling for brain @0.25, 0.5, 1, 2, 4, 8 and 24 hr, 7 time points. (N=3/timepoint, N=21/arm); collect brains after perfusion.

Sequence of Human CB1 Receptor-1 (hCB1) (P21554 whole entry): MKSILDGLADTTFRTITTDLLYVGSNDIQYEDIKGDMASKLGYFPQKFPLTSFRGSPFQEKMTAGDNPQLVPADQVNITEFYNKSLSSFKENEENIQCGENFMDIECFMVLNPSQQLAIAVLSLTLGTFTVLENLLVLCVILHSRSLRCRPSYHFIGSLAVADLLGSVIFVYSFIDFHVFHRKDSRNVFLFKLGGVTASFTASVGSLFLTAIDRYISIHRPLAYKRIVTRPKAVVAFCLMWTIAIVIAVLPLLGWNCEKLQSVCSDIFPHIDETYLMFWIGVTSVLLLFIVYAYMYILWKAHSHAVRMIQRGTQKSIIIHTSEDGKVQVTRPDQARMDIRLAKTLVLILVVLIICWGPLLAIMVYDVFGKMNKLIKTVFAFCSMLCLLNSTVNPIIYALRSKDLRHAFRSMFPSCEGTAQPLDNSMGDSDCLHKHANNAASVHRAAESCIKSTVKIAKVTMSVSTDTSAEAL
Sequence of Human CB1 Receptor-1b (hCB1b) (P21554 other isoform, or with tags, fused parts or gaps): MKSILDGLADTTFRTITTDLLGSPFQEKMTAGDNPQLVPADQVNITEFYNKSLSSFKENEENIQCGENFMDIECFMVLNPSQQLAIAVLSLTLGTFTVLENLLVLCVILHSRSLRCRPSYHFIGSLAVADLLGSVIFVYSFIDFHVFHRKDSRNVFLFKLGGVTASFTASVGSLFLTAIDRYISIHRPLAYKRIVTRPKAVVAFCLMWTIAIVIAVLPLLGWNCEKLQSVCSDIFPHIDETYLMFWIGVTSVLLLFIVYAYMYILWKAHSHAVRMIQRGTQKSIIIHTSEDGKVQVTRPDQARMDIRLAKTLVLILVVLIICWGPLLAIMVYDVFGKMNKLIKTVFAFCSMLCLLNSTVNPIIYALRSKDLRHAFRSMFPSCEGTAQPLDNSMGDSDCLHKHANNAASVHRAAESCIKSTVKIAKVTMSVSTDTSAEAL

NS(=O)(=O)CCNC(=NS(=O)(=O)c1ccc(C(F)(F)F)cc1)N1C[C@H](c2ccccc2)C(c2ccc(Cl)cc2)=N1 [Compound 9, (S,E)-3-(4-chlorophenyl)-4-phenyl-N-(2-sulfamoylethyl)-N′-((4-(trifluoromethyl)phenyl)sulfonyl)-4,5-dihydro-1H-pyrazole-1-carboximidamide]
IC50 [1]: < 0.1 µM
IC50 [2]: < 0.1 µM
blood-brain-barrier penetration (brain/plasma ratio by AUC0-24 and Cmax) [3]: substantially reduced blood-brain-barrier penetration as compared to rimonabant

NS(=O)(=O)CCNC(=NS(=O)(=O)c1ccc(F)cc1)N1C[C@H](c2ccccc2)C(c2ccc(F)cc2)=N1 [Compound 51, (S)-3-(4-fluorophenyl)-N′-((4-fluorophenyl)sulfonyl)-4-phenyl-N-(2-sulfamoylethyl)-4,5-dihydro-1H-pyrazole-1-carboximidamide]
IC50 [1]: 0.1 to 0.5 µM
IC50 [2]: 0.1 to 0.5 µM

C[C@H](CS(N)(=O)=O)N/C(=N\S(=O)(=O)c1ccc(Cl)cc1)N1C[C@H](c2ccccc2)C(c2ccc(F)cc2)=N1 [Compound 57, (S,E)-N′-((4-chlorophenyl)sulfonyl)-3-(4-fluorophenyl)-4-phenyl-N-((R)-1-sulfamoylpropan-2-yl)-4,5-dihydro-1H-pyrazole-1-carboximidamide]
IC50 [1]: > 0.5 µM
IC50 [2]: > 0.5 µM

NS(=O)(=O)[C@H]1C[C@H](N/C(=N/S(=O)(=O)c2ccc(Cl)cc2)N2C[C@H](c3ccccc3)C(c3ccc(F)cc3)=N2)C1 (single isomer, unassigned) [Compound 127]
IC50 [1]: 0.1 to 0.5 µM
IC50 [2]: 0.1 to 0.5 µM

NS(=O)(=O)N[C@H]1C[C@@H](N/C(=N\S(=O)(=O)c2ccc(C(F)(F)F)cc2)N2C[C@H](c3ccccc3)C(c3ccc(Cl)cc3)=N2)C1 (single isomer, unassigned) [Compound 245]
IC50 [1]: < 0.1 µM
IC50 [2]: 0.1 to 0.5 µM

NS(=O)(=O)CCN/C(=N\S(=O)(=O)c1ccc(Cl)cc1)N1C[C@H](c2ccccc2)C(c2ccc(F)cc2)=N1 [Compound 45, (S,E)-N′-((4-chlorophenyl)sulfonyl)-3-(4-fluorophenyl)-4-phenyl-N-(2-sulfamoylethyl)-4,5-dihydro-1H-pyrazole-1-carboximidamide]
IC50 [1]: < 0.1 µM
IC50 [2]: < 0.1 µM

NS(=O)(=O)CCCCN/C(=N\S(=O)(=O)c1ccc(Cl)cc1)N1C[C@H](c2ccccc2)C(c2ccc(Cl)cc2)=N1 [Compound 99, (S,E)-3-(4-chlorophenyl)-N′-((4-chlorophenyl)sulfonyl)-4-phenyl-N-(4-sulfamoylbutyl)-4,5-dihydro-1H-pyrazole-1-carboximidamide]
IC50 [1]: > 0.5 µM
IC50 [2]: > 0.5 µM

C[C@@H](CN/C(=N\S(=O)(=O)c1ccc(Cl)cc1)N1C[C@H](c2ccccc2)C(c2ccc(Cl)cc2)=N1)S(N)(=O)=O [Compound 6, (S,E)-3-(4-chlorophenyl)-N′-((4-chlorophenyl)sulfonyl)-4-phenyl-N-((S)-2-sulfamoylpropyl)-4,5-dihydro-1H-pyrazole-1-carboximidamide]
IC50 [1]: < 0.1 µM
IC50 [2]: 0.1 to 0.5 µM

NS(=O)(=O)CCN/C(=N\S(=O)(=O)c1ccc(F)cc1)N1C[C@H](c2ccccc2)C(c2ccc(Cl)cc2)=N1 [Compound 11, (S,E)-3-(4-chlorophenyl)-N′-((4-fluorophenyl)sulfonyl)-4-phenyl-N-(2-sulfamoylethyl)-4,5-dihydro-1H-pyrazole-1-carboximidamide]
IC50 [1]: < 0.1 µM
IC50 [2]: < 0.1 µM

NS(=O)(=O)[C@@H]1CCN(/C(=N/S(=O)(=O)c2ccc(Cl)cc2)N2C[C@H](c3ccccc3)C(c3ccc(Cl)cc3)=N2)C1 (single isomer, unassigned) [Compound 136]
IC50 [1]: > 0.5 µM
IC50 [2]: > 0.5 µM

C[C@@H](CS(N)(=O)=O)NC(=NS(=O)(=O)c1ccc(Cl)cc1)N1C[C@H](c2ccccc2)C(c2ccc(F)cc2)=N1 (single isomer, unassigned) [Compound 61]
IC50 [1]: 0.1 to 0.5 µM
IC50 [2]: 0.1 to 0.5 µM

NS(=O)(=O)N1CC(N/C(=N\S(=O)(=O)c2ccc(Cl)cc2)N2C[C@H](c3ccccc3)C(c3ccc(Cl)cc3)=N2)C1 [Compound 191, (S,E)-3-(4-chlorophenyl)-N′-((4-chlorophenyl)sulfonyl)-4-phenyl-N-(1-sulfamoylazetidin-3-yl)-4,5-dihydro-1H-pyrazole-1-carboximidamide]
IC50 [1]: < 0.1 µM
IC50 [2]: < 0.1 µM

CN(C)S(=O)(=O)CCN/C(=N\S(=O)(=O)c1ccc(F)cc1)N1C[C@H](c2ccccc2)C(c2ccc(F)cc2)=N1 [Compound 167, (S,E)-N-(2-(N,N-dimethylsulfamoyl)ethyl)-3-(4-fluorophenyl)-N′-((4-fluorophenyl)sulfonyl)-4-phenyl-4,5-dihydro-1H-pyrazole-1-carboximidamide]
IC50 [1]: < 0.1 µM
IC50 [2]: < 0.1 µM

C[C@@H](CN/C(=N\S(=O)(=O)c1ccc(C(F)(F)F)cc1)N1C[C@H](c2ccccc2)C(c2ccc(F)cc2)=N1)S(N)(=O)=O (single isomer, unassigned) [Compound 48]
IC50 [1]: < 0.1 µM
IC50 [2]: < 0.1 µM
